Assay results reported in ChEMBL document CHEMBL1125956, “A new potent inhibitor for angiotensin converting enzyme: (R,S)-captopril-F3” (Bioorg Med Chem Lett, 1991).

Target: T1, Angiotensin-converting enzyme (Oryctolagus cuniculus, UniProt P12822)
T1 sequence (P12822 whole entry): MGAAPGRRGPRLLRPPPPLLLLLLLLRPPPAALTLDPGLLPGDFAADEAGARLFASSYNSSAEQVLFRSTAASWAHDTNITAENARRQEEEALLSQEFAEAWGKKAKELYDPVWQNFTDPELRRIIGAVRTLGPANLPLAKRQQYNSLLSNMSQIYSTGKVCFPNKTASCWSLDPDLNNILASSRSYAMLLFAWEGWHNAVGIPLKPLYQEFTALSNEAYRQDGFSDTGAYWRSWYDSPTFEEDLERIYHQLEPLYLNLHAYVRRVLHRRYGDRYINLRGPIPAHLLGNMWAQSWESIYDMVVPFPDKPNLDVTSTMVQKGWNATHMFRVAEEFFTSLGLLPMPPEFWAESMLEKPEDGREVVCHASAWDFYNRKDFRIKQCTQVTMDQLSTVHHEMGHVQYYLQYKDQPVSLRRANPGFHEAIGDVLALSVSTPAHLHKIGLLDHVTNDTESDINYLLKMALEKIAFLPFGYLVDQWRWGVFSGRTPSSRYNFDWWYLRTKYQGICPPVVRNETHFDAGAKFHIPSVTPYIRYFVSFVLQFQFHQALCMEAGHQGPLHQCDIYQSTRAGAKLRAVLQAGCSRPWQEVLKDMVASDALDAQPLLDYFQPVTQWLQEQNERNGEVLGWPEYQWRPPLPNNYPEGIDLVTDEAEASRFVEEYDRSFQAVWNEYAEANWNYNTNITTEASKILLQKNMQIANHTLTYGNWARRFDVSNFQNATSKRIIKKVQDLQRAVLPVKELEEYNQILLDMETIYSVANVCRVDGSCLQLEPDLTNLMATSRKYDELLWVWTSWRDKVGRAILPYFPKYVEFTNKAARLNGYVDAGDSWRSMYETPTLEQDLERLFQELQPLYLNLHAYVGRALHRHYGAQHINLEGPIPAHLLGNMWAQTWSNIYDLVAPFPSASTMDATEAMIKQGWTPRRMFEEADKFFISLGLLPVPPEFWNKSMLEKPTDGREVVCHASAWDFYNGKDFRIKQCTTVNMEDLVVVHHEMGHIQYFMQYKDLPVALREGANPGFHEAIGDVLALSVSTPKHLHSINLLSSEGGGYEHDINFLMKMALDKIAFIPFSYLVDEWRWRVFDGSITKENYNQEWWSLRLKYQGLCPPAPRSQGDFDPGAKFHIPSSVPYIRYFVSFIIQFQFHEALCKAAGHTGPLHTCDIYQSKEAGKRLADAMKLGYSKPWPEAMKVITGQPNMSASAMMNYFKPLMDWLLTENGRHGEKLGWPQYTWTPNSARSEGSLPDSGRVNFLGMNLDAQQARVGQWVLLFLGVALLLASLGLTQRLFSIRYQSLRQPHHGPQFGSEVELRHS
Assay: In vitro inhibitory activity was evaluated against angiotensin converting enzyme from rabbit in bovine buffered base

## O=C(O)[C@@H]1CCCN1C(=O)[C@H](CS)C(F)(F)F
  IC50: 480 nM

## O=C(O)[C@@H]1CCCN1C(=O)[C@@H](CS)C(F)(F)F
  IC50: 0.29 nM
